From patent US9925274B2, “Delphinidin complex as an antiphlogistic or immunosuppressive active ingredient” (priority 2012, dated 2018)
Entries after “also recorded” stand apart in the source; their conditions may differ. Like-named read-outs stand apart in the source and are kept apart here.

Assays:
[1] = Stability experiments in aqueous solution: 0.9% NaCl, 37° C., delphinidin content by HPLC (Example 5); assay type: physicochemical; conditions: dark, start 1.584 mg/ml (complex) or 0.0216 mg/ml (uncomplexed)
Description: The content of delphinidin chloride in the delphinidin-containing solutions was determined by using a reverse-phase HPLC method similar to the one already described above. This used the following reagents: • Purified water • Methanol for chromatography • Formic acid, p. a. • 1 M Hydrochloric acid as volumetric solution.
The solutions were produced at room temperature and then stored in closed vials in the dark at 37° C.
After 1, 2, 3 and 4 h, the delphinidin content was determined. The table below specifies the ascertained content as a percentage of the above-stated starting concentration.

NFKB = test: Concentration of NFKB in the nucleus of monocytes after stimulation with LPS and/or delphinidin (immunofluorescence nuclear staining; Examples 6-8); assay type: cell-based; parameters: Inhibitory effect on the cell immune response compared to hydrocortisone: dose or concentration left out as unconfirmed
Description: For healthy test subjects, the concentration of NFKB in the nucleus of monocytes after stimulation with LPS and/or delphinidin was assayed by means of immunofluorescence nuclear staining for NFKB and expressed in relation to nonstimulated cells. NFKB is activated by various stimuli, especially inflammatory and stress-associated stimuli.
The following procedure was carried out and shown in FIG. 1 from left to right, with the stimulation/incubation of the cells (1 ml in each case of RPMI-1640 comprising 1 million cells in the exponential growth phase) taking place at 37° C. in a well of a 24-well polystyrene cell culture dish and the specified concentrations being final concentrations: • “1.5 h 10 μg LPS”—Stimulation of the cells for 1.5 h with 10 μg/ml LPS (control) • “24 h prestim. 5 μM Del-Cl; 1.5 h 10 μg LPS”—24 h prestimulation of the cells with 5 μM delphinidin chloride (dissolved in RPMI-1640 cell medium) and then 1.5 h stimulation with 10 μg/ml LPS • “1.5 h 5 μM Del-Cl+10 μg LPS”—1.5 h simulation of the cells with 10 μg/ml LPS and 5 μM delphinidin chloride (dissolved in RPMI-1640 cell medium) • “24 h prestim. 5 μM Del-Cl; 1.5 h 5 μM Del-Cl”—24 h prestimulation of the cells with 5 μM delphinidin chloride (dissolved in RPMI-1640 cell medium) and then renewed stimulation with 5 μM delphinidin chloride (dissolved in RPMI-1640 cell medium) for 1.5 h • “24 h prestim. 5 μM Del-Cl; 1.5 h 5 μM Del-Cl+10 μg LPS”—24 h prestimulation of the cells with 5 μM delphinidin chloride (dissolved in RPMI-1640 cell medium) and then renewed stimulation with 5 μM delphinidin chloride (dissolved in RPMI-1640 cell medium) and 10 μg/ml LPS for 1.5 h
A procedure analogous to the methodology in example 5 was carried out and shown in FIGS. 2a and 2b from left to right, with the stimulation/incubation of the cells (1 ml in each case of RPMI-1640 comprising 1 million cells in the exponential growth phase) taking place at 37° C. in a well of a 24-well polystyrene cell culture dish and the specified concentrations being final concentrations:
FIG. 2a: • “1.5 h 10 μg LPS”—Stimulation of the cells for 1.5 h with 10 μg/ml LPS (control) • “1.5 h 5 μM Del-Cl+10 μg LPS”—1.5 h simulation of the cells with 10 μg/ml LPS and 5 μM delphinidin chloride (dissolved in RPMI-1640 cell medium) • “1.5 h hydrocortisone+10 μg LPS”—Stimulation of the cells for 10^−5 M hydrocortisone and 10 μg/ml LPS for 1.5 h
FIG. 2b: • “1.5 h 10 μg LPS”—Stimulation of the cells for 1.5 h with 10 μg/ml LPS (control) • “1.5 h 10 μM Del-Cl+10 μg LPS”—1.5 h simulation of the cells with 10 μg/ml LPS and 10 μM delphinidin chloride (dissolved in RPMI-1640 cell medium)
A procedure analogous to the methodology in examples 5 and 6 was carried out and shown in FIG. 3 from left to right, with the stimulation/incubation of the cells (1 ml in each case of RPMI-1640 comprising 1 million cells in the exponential growth phase) taking place at 37° C. in a well of a 24-well polystyrene cell culture dish and the specified concentrations being final concentrations: • “1.5 h 2.5 μM Del-Cl”—1.5 h stimulation of the cells with 2.5 μM delphinidin chloride (dissolved in RPMI-1640 cell medium) • “1.5 h 5 μM Del-Cl”—1.5 h simulation of the cells with 5 μM delphinidin chloride (dissolved in RPMI-1640 cell medium) • “1.5 h 10 μM Del-Cl”—1.5 h stimulation of the cells with 10 μM delphinidin chloride (dissolved in RPMI-1640 cell medium) • “1.5 h hydrocortisone”—1.5 h stimulation of the cells with […] hydrocortisone

[2] = tested on: tight junction protein claudin-5 mRNA expression in cEND cells; test: claudin-5 mRNA expression in cEND cells with or without TNFα (Example 10); assay type: cell-based, murine
From the text: The surrogate marker used for the tightness of the barrier was the expression of the tight junction protein claudin-5 (Forster C. Tight junctions and the modulation of barrier function in disease. Histochem Cell Biol. 2008; 130: 55-70) and the procedure carried out was analogous to example 8.

[3] = tested on: Cc17 [chemokine (C—C motif) ligand 7] mRNA expression in cEND cells; conditions: for Effect on the TNFα-induced rise in Cc17 mRNA expression: TNFα 24 h
[4] = Solubility of delphinidin chloride in aqueous cyclodextrin solutions (Example 1); conditions: neutral aqueous solution with 10% by weight cyclodextrin (β-CD 2%) or pure water; excess delphinidin chloride; stirred in the dark at 30° C. for 20 h; 0.22 μm filtration
[5] = conclusion from the measured results

Oc1cc(O)c2cc(O)c(-c3cc(O)c(O)c(O)c3)[o+]c2c1.[Cl-] [delphinidin, Delphinidin chloride]
Delphinidin content as a percentage of the starting concentration ([1]; 0 h): 100% | Delphinidin content as a percentage of the starting concentration ([1]; 1 h): 8.3% | Delphinidin content as a percentage of the starting concentration ([1]; 2 h): 6.5% | Delphinidin content as a percentage of the starting concentration ([1]; 3 h): 5.6% | Delphinidin content as a percentage of the starting concentration ([1]; 4 h): 5.1% | Inhibition of the LPS-mediated immune response (NFKB in the nucleus) (NFKB; 1.5 h 5 μM Del-Cl + 10 μg/ml LPS simultaneously, FIG. 1, FIG. 2a): inhibition of the immune response; also recorded: inhibited at least just as well as by means of addition of hydrocortisone | Inhibition of the LPS-mediated immune response (NFKB in the nucleus) (NFKB; 1.5 h 10 μM Del-Cl + 10 μg/ml LPS, repeat experiment FIG. 2b): significantly reduced | Inhibition of the cell immune response with varying concentration (NFKB in the nucleus) (NFKB; 1.5 h 2.5, 5 and 10 μM Del-Cl, without LPS, FIG. 3): increase in the delphinidin-mediated inhibition of the cell immune response (dose effect) | Inhibition of the LPS-mediated immune response (NFKB in the nucleus) (NFKB; 24 h prestimulation 5 μM Del-Cl, then 1.5 h 5 μM Del-Cl + 10 μg/ml LPS, FIG. 1): further intensified (additive effect) | Inhibition of the LPS-mediated immune response (NFKB in the nucleus) (NFKB; 24 h prestimulation with 5 μM Del-Cl, then 1.5 h 10 μg/ml LPS, FIG. 1): (weakly) inhibits | Inhibitory effect on the cell immune response compared to hydrocortisone (NFKB; appropriately high delphinidin concentration, 1.5 h, comparison hydrocortisone, FIG. 3): comparable to that of hydrocortisone | Effect on the TNFα-mediated decrease in claudin-5 mRNA expression ([2]; then delphinidin 0.1 μM, FIG. 5): counteracted this TNFα-mediated decrease | Effect on the TNFα-mediated decrease in claudin-5 mRNA expression ([2]; then delphinidin 1 μM, FIG. 5): counteracted this TNFα-mediated decrease | Barrier of the blood-brain barrier after inflammation [2, 5]: strongly increases | Effect on claudin-5 mRNA expression without prior TNFα exposure ([2]; delphinidin alone in the cell culture medium, FIG. 5): increase in claudin-5 mRNA expression | Effect on the TNFα-induced rise in Cc17 mRNA expression ([3]; then delphinidin 0.1 μM for a further 24 h, FIG. 4): distinct suppression or inhibition | Effect on the TNFα-induced rise in Cc17 mRNA expression ([3]; then delphinidin 1 μM for a further 24 h, FIG. 4): distinct suppression or inhibition | Antiphlogistic effect on the blood-brain barrier after inflammation relative to dexamethasone [3, 5]: at least equivalent | Effect on Cc17 expression without prior TNFα exposure ([3]; delphinidin alone in the cell culture medium, FIG. 4): suppression of Cc17 expression | Attainable solubility, Delphinidin chloride [4]: 70 µg/mL

C[C@]12CCC(=O)C=C1CC[C@@H]1[C@@H]2[C@@H](O)C[C@@]2(C)[C@H]1CC[C@]2(O)C(=O)CO [hydrocortisone, reference compound]
Inhibition of the LPS-mediated immune response (NFKB in the nucleus) (NFKB; 1.5 h 10^−5 M hydrocortisone + 10 μg/ml LPS, FIG. 2a): inhibited
